Where two headings read alike, the source gives them in different places.
Legend:
human AR [1] = biological target: T1, human AR (Homo sapiens, UniProt P10275); assay: AR antagonism assay: inhibition of transcriptional activation of AR (Probasin-luc reporter, COS-1 cells); assay type: cell-based; details: compound 10.0 μM; relative luciferase response: 100% for testosterone (no antiandrogenic effect), 0% for complete antagonism
T1 construct: expressed in transfected cells; host or cells: COS-1
T1 sequence (P10275 1-920): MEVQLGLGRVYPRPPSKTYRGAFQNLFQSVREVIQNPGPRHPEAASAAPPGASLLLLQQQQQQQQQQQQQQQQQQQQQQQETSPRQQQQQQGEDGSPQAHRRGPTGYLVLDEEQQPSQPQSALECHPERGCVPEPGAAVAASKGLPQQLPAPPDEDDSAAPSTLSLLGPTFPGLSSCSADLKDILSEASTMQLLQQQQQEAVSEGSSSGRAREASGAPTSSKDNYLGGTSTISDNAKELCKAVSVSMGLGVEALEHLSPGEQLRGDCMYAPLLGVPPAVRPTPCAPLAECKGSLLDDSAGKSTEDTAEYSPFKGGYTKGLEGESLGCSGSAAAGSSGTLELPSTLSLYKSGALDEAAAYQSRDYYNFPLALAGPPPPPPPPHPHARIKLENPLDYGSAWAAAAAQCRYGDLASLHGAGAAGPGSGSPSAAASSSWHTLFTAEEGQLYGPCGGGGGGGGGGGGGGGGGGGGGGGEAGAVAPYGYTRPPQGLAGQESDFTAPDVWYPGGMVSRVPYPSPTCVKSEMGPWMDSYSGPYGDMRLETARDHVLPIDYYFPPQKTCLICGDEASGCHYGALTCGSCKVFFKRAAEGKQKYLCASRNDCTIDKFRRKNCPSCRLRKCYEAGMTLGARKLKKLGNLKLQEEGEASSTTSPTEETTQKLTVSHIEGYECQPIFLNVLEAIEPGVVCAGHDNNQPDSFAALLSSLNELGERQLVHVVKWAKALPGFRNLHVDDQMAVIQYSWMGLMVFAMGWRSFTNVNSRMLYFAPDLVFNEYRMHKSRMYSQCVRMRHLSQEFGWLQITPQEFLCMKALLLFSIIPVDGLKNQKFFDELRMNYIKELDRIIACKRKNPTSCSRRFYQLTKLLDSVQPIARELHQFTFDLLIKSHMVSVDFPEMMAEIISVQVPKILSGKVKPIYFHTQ
In short: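 COS-1 cells transfected 24 h with human AR vector, Probasin-luc reporter and β-gal control, then exposed 18 h at 37 °C to 10 μM compound plus 100 nM testosterone. Luciferase read-out normalised to β-galactosidase activity and protein content.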

human AR [2] = biological target: T1, human AR; assay: Competitive AR binding assay against [3H]-R1881 in transiently transfected COS-1 cells; details: compound 13.4 μM, [3H]-R1881 1.34 nM, complete inhibition equals 100%, read-out: Inhibition of [3H]-R1881 binding at 1.34 nM ± S.D.
In short: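 COS-1 cells transfected 24 h with human AR vector, then after 36 h exposed 2 h at 37° C to compound at 10000-fold molar excess over 1.34 nM [3H]-R1881. Cell-bound radioactivity counted in triplicate; result given as % inhibition of labelled R1881 binding.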

SMILES: CC(C)(O)C(=O)Nc1ccc([N+](=O)[O-])c(C(F)(F)F)c1 [Hydroxyflutamide, reference compound]
- AR antagonism against 100 nM testosterone ± S.D. (human AR [1]): 13.0 ± 1.1%
- inhibition at 13.4 µM (human AR [2]; Table 1): 91.1 ± 2.2%
- inhibition at 13.4 µM (human AR [2]; Table 2): 94.8 ± 0.8%
- inhibition at 13.4 µM (human AR [2]; Table 3): 95.2 ± 2.9%

Reference: US9278942B2, “Non-steroidal compounds as androgen receptor modulators” (FLX Discoveries Oy, priority 2011, dated 2016)
